Measurements as given in US20240109853A1 (Shanghai Yao Yuan Biotechnology Co., Ltd., priority 2020, published 2024).
Like-named read-outs stand apart in the source and are kept apart here.

Assays:
[1] = biological target: ALPK1 (Homo sapiens (Human), UniProt Q96QP1); assay: ALPK1 in vitro kinase assay (HTRF of TIFA phosphorylation); assay type: biochemical
[2] = biological target: hALPK1-V1092A (Homo sapiens (Human), UniProt Q96QP1, V1092A); assay: cell-based
Experimental: Accordingly, we used IL-8 secretion as an indicator of activated ALPK1 inhibition in cells expressing these mutations.
Transfection was performed according to manufacturer's protocols (Lipofectamine™ 3000, ThermoFisher). Transfected cells were selected, seeded onto 96-well plates and treated with serial dilutions of the test compounds for 6.5 hr. Following treatment, cell viability was determined using a luminescent cell viability assay (Cell Counting-Lite Assay or “CCL Assay” from Vazyme Biotech Co., Ltd.) and cell free supernatants were collected and analyzed for IL-8 protein by IL-8 ELISA as described above.
Fresh medium and compound were added at 18 hours. Cell viability and IL-8 secretion were determined 6 hours after the second addition of compound, using the CCL assay and IL-8 ELISA as described above.

[3] = tested on: ALPK1-dependent NFκB reporter gene activation in HEK293 cells stably expressing an NF-kB reporter (G9 cells); assay: NFκB gene reporter alkaline phosphatase assay; assay type: cell-based; conditions: Homo sapiens, HEK293; read-out: NFkB assay IC50
Summary of the method: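 Read-out: chromogenic pNPP turnover by NF-kB-driven alkaline phosphatase in G9 cells (HEK293, stable reporter). Compound pre-incubation 30 min before agonist D-glycero-D-manno-6-fluoro-heptose-1β-S-ADP. IC50 by four-parameter logistic regression.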

[4] = ALPK1 2 nM, TIFA substrate, ADP-Heptose activator, HTRF readout

Sequence of ALPK1 (Q96QP1 whole entry): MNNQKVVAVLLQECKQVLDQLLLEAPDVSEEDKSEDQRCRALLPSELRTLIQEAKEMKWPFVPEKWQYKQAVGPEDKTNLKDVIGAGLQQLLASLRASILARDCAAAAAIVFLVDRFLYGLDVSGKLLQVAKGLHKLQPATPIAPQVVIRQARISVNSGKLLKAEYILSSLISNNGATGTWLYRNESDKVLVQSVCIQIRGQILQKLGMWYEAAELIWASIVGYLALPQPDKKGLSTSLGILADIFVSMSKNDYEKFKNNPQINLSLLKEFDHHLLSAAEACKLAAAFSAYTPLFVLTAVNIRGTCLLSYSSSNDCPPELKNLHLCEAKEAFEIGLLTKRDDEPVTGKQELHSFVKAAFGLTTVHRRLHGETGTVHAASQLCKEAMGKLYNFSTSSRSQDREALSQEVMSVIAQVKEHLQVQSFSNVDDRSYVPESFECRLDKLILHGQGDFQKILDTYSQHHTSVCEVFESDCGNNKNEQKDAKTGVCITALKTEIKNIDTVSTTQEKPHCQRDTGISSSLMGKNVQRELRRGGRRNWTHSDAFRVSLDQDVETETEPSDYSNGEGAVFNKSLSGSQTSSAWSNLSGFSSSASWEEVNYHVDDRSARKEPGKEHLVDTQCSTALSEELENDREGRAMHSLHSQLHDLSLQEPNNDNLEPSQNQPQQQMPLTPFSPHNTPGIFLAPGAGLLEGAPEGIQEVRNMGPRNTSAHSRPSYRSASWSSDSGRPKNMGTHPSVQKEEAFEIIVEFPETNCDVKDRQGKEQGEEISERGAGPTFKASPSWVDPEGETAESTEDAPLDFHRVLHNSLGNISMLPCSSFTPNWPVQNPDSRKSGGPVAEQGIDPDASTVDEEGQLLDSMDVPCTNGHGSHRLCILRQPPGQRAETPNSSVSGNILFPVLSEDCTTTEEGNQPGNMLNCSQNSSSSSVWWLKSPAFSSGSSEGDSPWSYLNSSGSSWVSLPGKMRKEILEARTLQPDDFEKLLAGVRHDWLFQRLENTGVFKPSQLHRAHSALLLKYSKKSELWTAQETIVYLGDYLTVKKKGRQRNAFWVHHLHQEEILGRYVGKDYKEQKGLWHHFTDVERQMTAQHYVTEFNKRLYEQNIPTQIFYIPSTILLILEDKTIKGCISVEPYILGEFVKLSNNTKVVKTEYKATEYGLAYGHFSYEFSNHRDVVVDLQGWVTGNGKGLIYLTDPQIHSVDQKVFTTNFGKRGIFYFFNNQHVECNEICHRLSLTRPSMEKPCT
Sequence of hALPK1-V1092A (Q96QP1 whole entry V1092A): as the sequence (Q96QP1 whole entry) above, with V1092A counted along it

Compound: C#C[C@@](C)(c1ccc(Cl)cc1)c1csc(NC(=O)c2ccc(N3CCNCC3)cc2)n1 (stereo in doubt) [Example B067, N-(4-(2-(4-chlorophenyl)but-3-yn-2-yl)thiazol-2-yl)-4-(piperazin-1-yl)benzamide]
- IC50 [1, 4]: 90 nM
- IC50 [2]: 215 nM

Compound: C#C[C@](C)(c1ccc(Cl)cc1)c1csc(NC(=O)c2ccc(N3CCNCC3)cc2)n1 (stereo in doubt) [Example B068, N-(4-(2-(4-chlorophenyl)but-3-yn-2-yl)thiazol-2-yl)-4-(piperazin-1-yl)benzamide]
- IC50 [1, 4]: 530 nM
- IC50 [2]: 27100 nM

Compound: C#C[C@](C)(c1ccc(Cl)cc1)c1csc(NC(=O)c2c(F)ccc(N3CCNCC3)c2F)n1 (stereo in doubt) [Example B075, N-(4-(2-(4-chlorophenyl)but-3-yn-2-yl)thiazol-2-yl)-2,6-difluoro-3-(piperazin-1-yl)benzamide]
- IC50 [1, 4]: 308 nM
- IC50 [2]: 13000 nM

Compound: C#C[C@@](C)(c1ccc(Cl)cc1)c1csc(NC(=O)c2c(F)ccc(N3CCNCC3)c2F)n1 (stereo in doubt) [Example B076, N-(4-(2-(4-chlorophenyl)but-3-yn-2-yl)thiazol-2-yl)-2,6-difluoro-3-(piperazin-1-yl)benzamide]
- IC50 [1, 4]: 85 nM
- IC50 [2]: 128 nM

Compound: C#C[C@](C)(c1ccc(F)cc1)c1csc(NC(=O)c2c(F)cc(N3CCNCC3)cc2F)n1 (stereo in doubt) [Example C034, 2,6-difluoro-N-(4-(2-(4-fluorophenyl)but-3-yn-2-yl)thiazol-2-yl)-4-(piperazin-1-yl)benzamide]
- IC50 [1, 4]: 40 nM
- IC50 [2]: 277 nM

Compound: C#C[C@@](C)(c1ccc(F)cc1)c1csc(NC(=O)c2c(F)cc(N3CCNCC3)cc2F)n1 (stereo in doubt) [Example C035, 2,6-difluoro-N-(4-(2-(4-fluorophenyl)but-3-yn-2-yl)thiazol-2-yl)-4-(piperazin-1-yl)benzamide]
- IC50 [1, 4]: 19 nM
- IC50 [2]: 67 nM

Compound: C#CC(C)(c1ccc(Cl)cc1)c1csc(NC(=O)NCC(C)(C)O)n1 (stereo not shown) [Example A268, 1-(4-(2-(4-chlorophenyl)but-3-yn-2-yl)thiazol-2-yl)-3-(2-hydroxy-2-methylpropyl)urea]
- IC50 [1]: 218 nM
- IC50 [3]: 1310 nM

Compound: C#CC(C)(c1ccc(Cl)cc1)c1csc(NC(=O)N2CCC(O)C2)n1 (stereo not shown) [Example A269, N-(4-(2-(4-chlorophenyl)but-3-yn-2-yl)thiazol-2-yl)-3-hydroxypyrrolidine-1-carboxamide]
- IC50 [1]: 881 nM
- IC50 [3]: 1260 nM

Compound: C#CC(C)(c1ccc(Cl)cc1)c1csc(NC(=O)N2CCC(CO)C2)n1 (stereo not shown) [Example A270, N-(4-(2-(4-chlorophenyl)but-3-yn-2-yl)thiazol-2-yl)-3-(hydroxymethyl)pyrroli-dine-1-carboxamide]
- IC50 [1]: 904 nM
- IC50 [3]: 1970 nM

Compound: C#CC(C)(c1ccc(Cl)cc1)c1csc(NC(=O)NO)n1 (stereo not shown) [Example A271, 1-(4-(2-(4-chlorophenyl)but-3-yn-2-yl)thiazol-2-yl)-3-hydroxyurea]
- IC50 [1]: 493 nM
- IC50 [3]: 730 nM

Compound: C#CC(C)(c1ccc(Cl)cc1)c1nc(NC(=O)NCCO)sc1F (stereo not shown) [Example A279, 1-(4-(2-(4-chlorophenyl)but-3-yn-2-yl)-5-fluorothiazol-2-yl)-3-(2-hydroxyethyl)urea]
- IC50 [1]: 222 nM
- IC50 [3]: 4230 nM

Compound: C#C[C@@](C)(c1ccc(F)cc1)c1csc(NC(=O)NCCO)n1 [Example A283, 1-(4-(2-(4-fluorophenyl)but-3-yn-2-yl)thiazol-2-yl)-3-(2-hydroxyethyl)urea]
- IC50 [1]: 550 nM
- IC50 [3]: 1700 nM

Compound: C#C[C@](C)(c1ccc(F)cc1)c1csc(NC(=O)NCCS(N)(=O)=O)n1 [Example A284, 2-(3-(4-(2-(4-fluorophenyl)but-3-yn-2-yl)thiazol-2-yl)ureido)ethanesulfona-mide]
- IC50 [1]: 666 nM
- IC50 [3]: 2600 nM

Compound: C#C[C@@](C)(c1ccc(F)cc1)c1csc(NC(=O)NCCS(N)(=O)=O)n1 [Example A285, 2-(3-(4-(2-(4-fluorophenyl)but-3-yn-2-yl)thiazol-2-yl)ureido)ethanesulfona-mide]
- IC50 [1]: 350 nM
- IC50 [3]: 1360 nM

Compound: C#C[C@](C)(c1ccc(Cl)cc1)c1csc(NC(=O)NCCS(N)(=O)=O)n1 [Example A288, 2-(3-(4-(2-(4-chlorophenyl)but-3-yn-2-yl)thiazol-2-yl)ureido)ethanesulfona-mide]
- IC50 [1]: 270 nM
- IC50 [3]: 1210 nM

Compound: C#C[C@@](C)(c1ccc(Cl)cc1)c1csc(NC(=O)NC2(CO)CC2)n1 [Example A295, 1-(4-(2-(4-chlorophenyl)but-3-yn-2-yl)thiazol-2-yl)-3-(1-(hydroxymethyl)cyclopro-pyl)urea]
- IC50 [1]: 522 nM
- IC50 [3]: 1790 nM

Compound: C#C[C@](C)(c1ccc(Cl)cc1)c1csc(NC(=O)NC2(CO)CC2)n1 [Example A296]
- IC50 [1]: 114 nM
- IC50 [3]: 4790 nM

Compound: [2H]c1sc(NC(=O)NCCO)nc1[C@@](C)(C#C)c1ccc(Cl)cc1 [Example A299, 1-(4-(2-(4-chlorophenyl)but-3-yn-2-yl)thiazol-2-yl)-3-(2-hydroxyethyl)urea]
- IC50 [1]: 58 nM
- IC50 [3]: 460 nM

Compound: [2H]c1sc(NC(=O)NCCO)nc1[C@](C)(C#C)c1ccc(Cl)cc1 [Example A300, 1-(4-(2-(4-chlorophenyl)but-3-yn-2-yl)thiazol-2-yl)-3-(2-hydroxyethyl)urea]
- IC50 [1]: 341 nM
- IC50 [3]: 3010 nM

Compound: C#C[C@](C)(c1ccc(Cl)cc1)c1csc(NC(=O)NC[C@@H](O)CO)n1 [Example A301, 1-(4-(2-(4-chlorophenyl)but-3-yn-2-yl)thiazol-2-yl)-3-((R)-2,3-dihydroxypropyl)urea]
- IC50 [1]: 354 nM
- IC50 [3]: 2220 nM

Compound: C#C[C@](C)(c1ccc(Cl)cc1)c1csc(NC(=O)NC[C@H](O)CO)n1 [Example A302, 1-(4-(2-(4-chlorophenyl)but-3-yn-2-yl)thiazol-2-yl)-3-((S)-2,3-dihydroxypropyl)urea]
- IC50 [1]: 417 nM
- IC50 [3]: 2040 nM

Compound: C#C[C@@](C)(c1ccc(Cl)cc1)c1csc(NC(=O)NC[C@@H](O)CO)n1 [Example A303, 1-(4-(2-(4-chlorophenyl)but-3-yn-2-yl)thiazol-2-yl)-3-((R)-2,3-dihydroxypropyl)urea]
- IC50 [1]: 101 nM
- IC50 [3]: 660 nM

Compound: C#C[C@@](C)(c1ccc(Cl)cc1)c1csc(NC(=O)NC[C@H](O)CO)n1 [Example A304, 1-(4-(2-(4-chlorophenyl)but-3-yn-2-yl)thiazol-2-yl)-3-((S)-2,3-dihydroxypropyl)urea]
- IC50 [1]: 90 nM
- IC50 [3]: 520 nM

Compound: C#CC(C)(c1ccc(Cl)cc1)c1csc(NC(=O)N2CCC(O)CC2)n1 (stereo not shown) [Example A307, N-(4-(2-(4-chlorophenyl)but-3-yn-2-yl)thiazol-2-yl)-4-hydroxypiperidine-1-carboxamide]
- IC50 [1]: 2060 nM
- IC50 [3]: 3150 nM

Compound: C#CC(C)(c1ccc(Cl)cc1)c1csc(NC(=O)N2CCNCC2)n1 (stereo not shown) [Example A308, N-(4-(2-(4-chlorophenyl)but-3-yn-2-yl)thiazol-2-yl)piperazine-1-carboxamide]
- IC50 [1]: 1540 nM
- IC50 [3]: 5330 nM

Compound: C#CC(C)(c1ccc(Cl)cc1)c1csc(NC(=O)NC2CCN(Cc3ccc(C)cc3)C2)n1 (stereo not shown) [Example A309, 1-(4-(2-(4-chlorophenyl)but-3-yn-2-yl)thiazol-2-yl)-3-(1-(4-methylbenzyl)pyrrolidin-3-yl)urea]
- IC50 [1]: 1410 nM
- IC50 [3]: 4120 nM
